Reference: ChEMBL document CHEMBL1201862, “PubChem BioAssay data set” (2004)
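Values below derive from 48-hour exposures of cells grown in 96-well plates, with endpoints linearly interpolated between the two concentrations bracketing the appropriate inhibition level. Here, GI50 denotes the concentration required for 50% inhibition of growth.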 Active and inactive are the calls of the source. No stated cut-off is given here; in the data, active = GI50 up to about 1.1 µM and inactive = higher.

Experiments:
Assay in all cases: inhibition of tumour cell growth, NCI panel, 48 h
[1] = test system: 786-0
[2] = test system: A498
[3] = test system: ACHN
[4] = test system: CAKI-1
[5] = test system: CCRF-CEM
[6] = test system: COLO 205
[7] = test system: DLD-1
[8] = test system: DMS-114
[9] = test system: DMS-273
[10] = test system: HCC 2998
[11] = test system: HCT-116
[12] = test system: HL-60
[13] = test system: HOP-62
[14] = test system: HOP-92
[15] = test system: IGROV-1
[16] = test system: K562
[17] = test system: LXFL 529
[18] = test system: M14
[19] = test system: M19-MEL
[20] = test system: MOLT-4
[21] = test system: Malme-3M
[22] = test system: NCI-H226
[23] = test system: NCI-H23
[24] = test system: NCI-H522
[25] = test system: OVCAR-4
[26] = test system: RPMI-8226
[27] = test system: RXF 631
[28] = test system: SF-268
[29] = test system: SF-539
[30] = test system: SK-MEL-28
[31] = test system: SK-MEL-2
[32] = test system: SK-OV-3
[33] = test system: SN12C
[34] = test system: SNB-75
[35] = test system: SNB-78
[36] = test system: SR
[37] = test system: UACC-62
[38] = test system: UO-31
[39] = test system: XF498
[40] = test system: A549
[41] = test system: EKVX
[42] = test system: HCT-15
[43] = test system: HOP-18
[44] = test system: HT-29
[45] = test system: KM-20L2
[46] = test system: KM12
[47] = test system: LOX IMVI
[48] = test system: NCI-H460
[49] = test system: OVCAR-3
[50] = test system: OVCAR-5
[51] = test system: OVCAR-8
[52] = test system: RXF 393
[53] = test system: SF-295
[54] = test system: SK-MEL-5
[55] = test system: SNB-19
[56] = test system: SW-620
[57] = test system: TK-10
[58] = test system: U-251
[59] = test system: UACC-257

Measured: GI50

Cc1ccc(NC(=O)c2c(C)nc(=O)n3c2N(/N=C/c2ccc(Cl)cc2)CC3)cc1
inactive: [1] 17.8 µM | [2] 15.9 µM | [3] 16.3 µM | [4] 18.2 µM | [5] 26.9 µM | [6] 21.7 µM | [7] 16.6 µM | [8] 16.5 µM | [9] 19.2 µM | [10] 17.9 µM | [11] 13.2 µM | [12] 23.1 µM | [13] 18.7 µM | [14] 20 µM | [15] 18.2 µM | [16] 26.7 µM | [17] 16.8 µM | [18] 17.1 µM | [19] 19.9 µM | [20] 23.8 µM | [21] 21.4 µM | [22] 16 µM | [23] 14.2 µM | [24] 10.4 µM | [25] 14.4 µM | [26] > 10 µM | [27] 14.7 µM | [28] 12.7 µM | [29] 11.9 µM | [30] 16.3 µM | [31] 18.7 µM | [32] 21.3 µM | [33] 14.7 µM | [34] 18.8 µM | [35] 19.8 µM | [36] 24.5 µM | [37] 13.4 µM | [38] 11.7 µM | [39] 15.6 µM

COC(=O)C1C(O)CC(c2ccccn2)N(Cc2ccccc2)C1c1ccccn1 (stereo not drawn)
inactive: [1] > 100 µM | [2] > 100 µM | [40] > 100 µM | [3] > 100 µM | [4] > 100 µM | [5] > 100 µM | [6] > 100 µM | [7] > 100 µM | [8] > 100 µM | [9] > 100 µM | [41] > 100 µM | [10] > 100 µM | [11] 94.4 µM | [12] 15.6 µM | [43] > 100 µM | [13] > 100 µM | [14] > 100 µM | [44] > 100 µM | [15] > 100 µM | [16] 44.4 µM | [45] > 100 µM | [46] > 100 µM | [47] > 100 µM | [17] > 100 µM | [18] > 100 µM | [19] > 100 µM | [20] 37.6 µM | [21] > 100 µM | [22] > 100 µM | [23] > 100 µM | [48] > 100 µM | [24] > 100 µM | [49] > 100 µM | [25] > 100 µM | [50] > 100 µM | [51] > 100 µM | [26] 23.4 µM | [52] > 100 µM | [27] > 100 µM | [28] > 100 µM | [53] > 100 µM | [29] > 100 µM | [30] > 100 µM | [31] > 100 µM | [54] 84.3 µM | [32] > 100 µM | [33] > 100 µM | [55] > 100 µM | [34] > 100 µM | [35] > 100 µM | [56] > 100 µM | [57] > 100 µM | [58] > 100 µM | [59] > 100 µM | [37] > 100 µM | [38] > 100 µM
> 100 µM: [42]

O=C(NCCCCNc1cccccc1=O)OCc1ccccc1
inactive: [1] > 100 µM | [2] > 100 µM | [40] > 100 µM | [3] > 100 µM | [4] > 100 µM | [5] > 100 µM | [6] > 100 µM | [7] > 100 µM | [8] 56.4 µM | [9] > 100 µM | [41] > 100 µM | [10] > 100 µM | [11] > 100 µM | [12] > 100 µM | [43] > 100 µM | [13] > 100 µM | [44] > 100 µM | [15] > 100 µM | [16] > 100 µM | [45] > 100 µM | [46] > 100 µM | [47] > 100 µM | [17] > 100 µM | [18] > 100 µM | [19] > 100 µM | [20] > 100 µM | [21] > 100 µM | [22] > 100 µM | [23] > 100 µM | [48] > 100 µM | [24] > 100 µM | [49] > 100 µM | [25] > 100 µM | [50] > 100 µM | [51] 54 µM | [26] > 100 µM | [27] > 100 µM | [28] > 100 µM | [53] > 100 µM | [30] > 100 µM | [31] > 100 µM | [54] 48.1 µM | [32] > 100 µM | [33] > 100 µM | [55] > 100 µM | [34] > 100 µM | [35] > 100 µM | [56] > 100 µM | [57] > 100 µM | [58] > 100 µM | [59] > 100 µM | [37] > 100 µM | [38] 58.5 µM
> 100 µM: [42]

COC(=O)c1ccc(Cc2ccc(C(=O)OC)o2)o1
> 378 µM: [42]
inactive: [1] > 378 µM | [40] > 378 µM | [3] > 378 µM | [4] > 378 µM | [5] > 378 µM | [6] > 378 µM | [7] > 378 µM | [9] > 378 µM | [41] > 378 µM | [10] > 378 µM | [11] > 378 µM | [12] > 378 µM | [43] 38.5 µM | [13] > 378 µM | [14] > 378 µM | [44] > 378 µM | [15] > 378 µM | [16] > 378 µM | [45] > 378 µM | [46] > 378 µM | [47] > 378 µM | [17] > 378 µM | [19] > 378 µM | [20] > 378 µM | [21] > 378 µM | [22] > 378 µM | [23] > 378 µM | [48] > 378 µM | [24] > 378 µM | [49] > 378 µM | [50] > 378 µM | [51] > 378 µM | [26] > 378 µM | [52] 282 µM | [27] > 378 µM | [28] > 378 µM | [53] > 378 µM | [29] > 378 µM | [30] > 378 µM | [31] > 378 µM | [54] > 378 µM | [32] > 378 µM | [33] > 378 µM | [55] 327 µM | [36] > 378 µM | [56] > 378 µM | [57] > 378 µM | [58] > 378 µM | [59] > 378 µM | [37] > 378 µM

CCOC(=O)NC(=O)c1cn(C2CCCCC2)c(=O)n(C)c1=O
> 100 µM: [42]
inactive: [1] > 100 µM | [2] > 100 µM | [40] > 100 µM | [3] > 100 µM | [4] > 100 µM | [5] > 100 µM | [6] > 100 µM | [7] > 100 µM | [8] > 100 µM | [9] > 100 µM | [10] > 100 µM | [11] > 100 µM | [12] > 100 µM | [43] > 100 µM | [13] > 100 µM | [14] > 100 µM | [44] > 100 µM | [15] > 100 µM | [16] > 100 µM | [45] > 100 µM | [46] > 100 µM | [47] > 100 µM | [17] > 100 µM | [18] > 100 µM | [19] > 100 µM | [20] > 100 µM | [21] > 100 µM | [22] > 100 µM | [23] > 100 µM | [48] > 100 µM | [24] > 100 µM | [49] > 100 µM | [25] > 100 µM | [50] > 100 µM | [51] > 100 µM | [26] > 100 µM | [52] > 100 µM | [27] > 100 µM | [28] > 100 µM | [53] > 100 µM | [29] > 100 µM | [30] > 100 µM | [31] > 100 µM | [54] > 100 µM | [32] > 100 µM | [33] > 100 µM | [55] > 100 µM | [34] > 100 µM | [35] > 100 µM | [36] > 100 µM | [56] > 100 µM | [57] > 100 µM | [58] > 100 µM | [59] > 100 µM | [37] > 100 µM | [38] > 100 µM
